Assay results taken from patent EP4094756A1 (priority 2021, dated 2022).

Tested on: SARS-CoV-2 VOC (Alpha, Beta, and Delta)
Assay: SARS-CoV2 VOC testing in Vero cells, standard plaque assay
Assay type: cell-based

Cc1cc(O)c2c(=O)c3c(O)cc(O)c4c5c(O)cc(O)c6c(=O)c7c(O)cc(C)c8c1c2c(c34)c(c78)c65 [Hypericin, hypericin]
drop of virus titers in comparison to DMSO-treated controls: 3-5 log steps
